Test results from publication PMC7955127, “Preclinical small molecule WEHI-7326 overcomes drug resistance and elicits response in patient-derived xenograft models of human treatment-refractory tumors” (Cell Death & Disease, 2021).

Experiments:
[1] = system: 134183 HGSOC PDX; assay: HGSOC PDX model 134183; assay type: in vivo, NSG mice; details: 134183 platinum-sensitive PDX; 20 mg/kg i.v. biweekly, 6 weeks
Experimental: Two to three mm ovarian tumor fragments were subcutaneously engrafted in the left flank of NSG mice and monitored by physical palpation for tumor growth and engraftment. Engrafted tumors were measured twice a week using digital Vernier calipers and maximum tumor diameter + perpendicular tumor length were digitally recorded into the Study Director software (v 3.0/4.0 StudyLog). Tumor volume was calculated automatically (tumor volume (mm^3) = 0.5236 x [larger diameter (mm) x smaller diameter (mm)^2]). Mice were randomized to treatment once their tumor volume reach 180–300 mm^3 and tumor measurements were performed twice a week up to 120 days or when the tumor volume reaches 700 mm^3.
Time to progressive disease (PD): Defined as the time (in days) from beginning of treatment to an increase in average tumor volume of >20% from the nadir (taken as the smallest average tumor volume recorded since treatment started or 200 mm^3 if nadir was <200 mm^3 as lesions smaller than this are difficult to measure with accuracy). Median time to harvest (TTH): Defined as the time (in days) from the beginning of treatment to day of harvest at 700 mm^3 and the median TTH was calculated and plotted using Kaplan-Meier curves. Based on ref. [27]. […]

[2] = system: LoVo (colon carcinoma) xenograft; assay: LoVo tumor xenograft in nude mice; assay type: in vivo, Balb/c nude mice
Experimental: LoVo (4 × 10^6), PC3 (3 × 10^6) or MDA-MB-231 LNA DRE (10^6) cells were collected by trypsination and injected with 50 μl 1:1 PBS:Matrigel (v/v) subcutaneously on the right flank of 18 female (LoVo), 40 male (PC3) or into 4th mammary fat pad of 40 female (MDA231) Balb/c nude mice. Tumor growth was monitored and average tumor size at commencement of dosing was 100 mm^3. Mice were randomized into 3 arms of each 5 (LoVo), 10 (PC3) or 12 (MDA23) mice respectively and treatment with vehicle (saline), WEHI-7326 (biweekly) or docetaxel (weekly) was administered via tail vein injection. Tumor volumes were measured at least twice weekly with calipers and the experiments were terminated when tumors in the control group started exceeding 1500 mm^3. For LoVo, both vehicle and 25 mg/kg WEHI-7326 groups were harvested 24 h, but 20 mg/kg WEHI-7326 group harvested 1 h post final dose. For PC3, docetaxel group was not harvested in an attempt to grow out resistant tumors.

[3] = system: spontaneous neuroblastoma in Th-MYCN transgenic mice; assay: Th-MYCN transgenic mouse model of neuroblastoma; assay type: in vivo; details: WEHI-7326 20 mg/kg i.v. twice weekly, standard-of-care combinations daily i.p. for 5 days
Experimental: All animal studies were performed in accordance with the guidelines approved by University of New South Wales Animal Care and Ethics Committee (ACEC 17/53B) and in accordance with the requirements of the Australian Code for the Care and Use of Animals for Scientific Purposes. PDX models COG-N-440x and COG-N-496x were obtained from the Childhood Cancer Repository, Texas Tech University Health Sciences Center in Lubbock, TX, USA. 6–8 week old female NSG mice were engrafted by subcutaneous injection with 1 × 10^6 freshly thawed PDX tumor cells into one flank in a mixture of 100 μl RPMI-1640 and 100 μl Matrigel. Mice were monitored for tumor development three times weekly and tumor size measured using digital Vernier calipers. Treatments commenced when tumors reached 50 mm^3, following randomization into treatment arms. […] Mice were treated with either vincristine (0.5 mg/kg, once weekly i.p. in sterile saline for up to 5 weeks), WEHI-7326 (20 mg/kg; twice weekly i.v. in sterile saline for up to 5 weeks) or vehicle (as for WEHI-7326). For the Th-MYCN transgenic mouse model, spontaneous tumor growth in mice homozygous for the MYCN transgene was assessed by abdominal palpation at least twice a week. Treatments commenced once a small palpable tumor (~5 mm) was detected, following randomization to treatment arms. Mice were euthanized upon detection of an abdominal tumor of ~1 cm in diameter. […]

[4] = system: 322 T TNBC PDX; assay: TNBC PDX model 322T; assay type: in vivo, NOD-SCID-IL2Rγc–/– mice
Experimental: Cohorts of about 30 female mice were seeded with thawed single cell suspensions of early passage human breast tumors (passage 2 or 3). Briefly, 150,000–250,000 cells were resuspended in 10 µl of transplantation buffer (50% fetal calf serum, 10% of a 0.04% trypan blue solution and 40% PBS) and growth-factor-reduced Matrigel [BD] at a ratio of 3:1, and injected into the cleared mammary fat pads of 3- or 4-week-old NOD-SCID-IL2Rγc–/– female mice. Mice were monitored for tumor development three times weekly and tumor size measured using digital Vernier calipers. Tumor volume was estimated by measuring the minimum and maximum tumor diameters using the formula: (minimum diameter)^2 x (maximum diameter)/2. Once tumors arose, mice were randomized into treatment arms. Treatment was initiated when the tumor volume reached 80–120 mm^3. Randomization and tumor measurements were managed using the Study Director software (v 3.0, studylog). Mice were sacrificed at the first measurement where tumor volume exceeded 600 mm^3, or if their health deteriorated for reasons other than disease progression or drug toxicity (censored event).
Mice were treated with either docetaxel (10 mg/kg; i.p.; once), cisplatin (4 mg/kg; i.p.; once) or WEHI-7326 (20 mg/kg; twice a week (Monday and Thursday); i.v.). Vehicle treated mice were administered with the vehicle for WEHI-7326. Docetaxel was resuspended at 2 mg/ml in PBS:Tween-80:ethanol = 90:5:5 (v/v/v). WEHI-7326 was resuspended at 2 mg/ml in saline.

SMILES: COc1ccc(CNc2nc(NCc3ccc(CN)cc3)nc(NN3CC(=O)NC3=O)n2)cc1 [WEHI-7326]
- Median time to harvest (TTH) [1]: lack of improvement
- Time to progressive disease (PD) [1]: 53 days
- Body weight loss ([2]; LoVo xenograft mice, 25 mg/kg, 9 doses in total): ~ 6%
- Tumor growth inhibition ([2]; LoVo xenograft, 25 mg/kg biweekly i.v.): 60%
- Median survival [3]: 44 days
- Adverse effects in treatment arm ([4]; 322 T PDX mice, 20 mg/kg i.v. twice a week, n = 10): 1 sick, 1 found dead
- Survival time ([4]; 322 T PDX, docetaxel 10 mg/kg i.p. once, WEHI-7326 20 mg/kg i.v. biweekly): 18 days
